Test results published in article PMC11191402, “High-Affinity NIR-Fluorescent Inhibitors for Tumor Imaging via Carbonic Anhydrase IX” (Bioconjugate Chemistry, 2024).

Tests used:
[1] = target: T1, human recombinant CAVA (Homo sapiens, UniProt P35218); assay: Fluorescence-based thermal shift assay (FTSA), CAVA; assay type: binding; conditions: 37 °C, pH 7.0
T1 construct: Most isozymes were truncated, and only the catalytic domains of the proteins were produced; made in house; host or cells: bacterial expression system
T1 sequence (P35218 39-296 limits assumed): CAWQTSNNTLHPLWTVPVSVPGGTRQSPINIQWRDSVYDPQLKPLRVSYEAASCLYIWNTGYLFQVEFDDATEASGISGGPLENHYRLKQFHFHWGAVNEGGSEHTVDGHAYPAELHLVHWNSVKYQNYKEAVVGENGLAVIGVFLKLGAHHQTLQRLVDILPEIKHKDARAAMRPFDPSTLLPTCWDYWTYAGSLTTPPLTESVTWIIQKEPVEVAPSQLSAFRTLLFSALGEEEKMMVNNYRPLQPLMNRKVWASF
Method: (§1) The binding affinities of the four NIR-fluorescent compounds to 12 catalytically active recombinant CA isozymes were determined by the fluorescence-based thermal shift assay (FTSA), and the dissociation constants (Kd’s) at physiological pH (pH 7.0) and 37 °C are listed in Table 1.
(§2) All 12 catalytically active human CA isozymes were prepared recombinantly as previously described. Most isozymes were truncated, and only the catalytic domains of the proteins were produced.[9],[56] All isozymes were expressed in a bacterial expression system except that CAIX was expressed in mammalian cells. The proteins were chromatographically purified via immobilized metal affinity chromatography, ion-exchange, or p-aminomethylbenzenesulfonamide-sepharose affinity chromatography. Protein purity was confirmed by SDS-PAGE, and MW was confirmed by mass spectrometry with 1 Da precision, as predicted from theoretical protein sequence.
(§3) The fluorescence-based thermal shift assay (FTSA) was used to determine the binding affinity of compounds for all catalytically active CA isozymes. The assay is based on the thermal stabilization of proteins by bound ligands and distinguishes itself in its ability to determine extremely high affinity (picomolar Kd) of compound binding to CAIX. The experiments were performed with a QIAGEN Rotor-Gene Q instrument using either the blue channel (365 ± 20 nm excitation and 460 ± 15 nm emission detection) or the green channel (470 ± 10 nm excitation and 510 ± 5 nm detection). The protein solution, in the absence and presence of various compound concentrations ranging from 3 to 200 μM (2× dilutions), was heated from 25 to 99 °C (heating rate, 1 °C/min). The CA isozyme melting temperature Tm was determined by following the fluorescence of 8-anilino-1-naphthalenesulfonate (ANS) or Glomelt dye. The samples consisted of 5 μM protein (or 10 μM CAIV), different concentrations of the tested compound, and 50 μM ANS or 200× diluted Glomelt in 50 mM sodium phosphate buffer (at pH 7.0) containing 100 mM sodium chloride and 2–4% (v/v) dimethyl sulfoxide. To obtain the dissociation constant (at 37 °C), data analysis was performed, and the curves were fit using the Thermott Web server.[57]

[2] = target: T2, human recombinant CAVII (Homo sapiens, UniProt P43166); assay: Fluorescence-based thermal shift assay (FTSA), CAVII; assay type: binding; conditions: 37 °C, pH 7.0
T2 construct: made in house; host or cells: bacterial expression system
T2 sequence (P43166 whole entry): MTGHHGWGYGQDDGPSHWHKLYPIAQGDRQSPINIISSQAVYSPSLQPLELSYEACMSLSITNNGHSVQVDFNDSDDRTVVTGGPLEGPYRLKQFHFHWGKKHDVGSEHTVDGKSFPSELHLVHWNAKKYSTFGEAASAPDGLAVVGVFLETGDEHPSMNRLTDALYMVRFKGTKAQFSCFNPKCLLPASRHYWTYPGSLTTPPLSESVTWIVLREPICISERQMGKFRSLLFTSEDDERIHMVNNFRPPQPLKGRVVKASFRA
Method: as §1, §2
as §3, with “To obtain the dissociation constant (at 37 °C), data analysis was performed, and the curves were fit using the Thermott Web server.[57]” left out

[3] = target: T3, human recombinant CAIV (Homo sapiens, UniProt P22748); assay: Fluorescence-based thermal shift assay (FTSA), CAIV; assay type: binding; conditions: 37 °C, pH 7.0
T3 construct: Most isozymes were truncated, and only the catalytic domains of the proteins were produced; made in house; host or cells: bacterial expression system
T3 sequence (P22748 21-285 limits assumed): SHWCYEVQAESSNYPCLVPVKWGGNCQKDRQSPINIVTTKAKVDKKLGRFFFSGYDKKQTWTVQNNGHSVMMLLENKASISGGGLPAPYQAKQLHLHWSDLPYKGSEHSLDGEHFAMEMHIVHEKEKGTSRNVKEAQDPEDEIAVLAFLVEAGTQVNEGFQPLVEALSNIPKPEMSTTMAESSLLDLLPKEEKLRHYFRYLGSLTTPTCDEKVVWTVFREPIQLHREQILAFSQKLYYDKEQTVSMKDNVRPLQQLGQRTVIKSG
Method: as §1, §2, §3

[4] = target: T4, human recombinant CAI (Homo sapiens, UniProt P00915); assay: Fluorescence-based thermal shift assay (FTSA), CAI; assay type: binding; conditions: 37 °C, pH 7.0
T4 construct: made in house; host or cells: bacterial expression system
T4 sequence (P00915 whole entry): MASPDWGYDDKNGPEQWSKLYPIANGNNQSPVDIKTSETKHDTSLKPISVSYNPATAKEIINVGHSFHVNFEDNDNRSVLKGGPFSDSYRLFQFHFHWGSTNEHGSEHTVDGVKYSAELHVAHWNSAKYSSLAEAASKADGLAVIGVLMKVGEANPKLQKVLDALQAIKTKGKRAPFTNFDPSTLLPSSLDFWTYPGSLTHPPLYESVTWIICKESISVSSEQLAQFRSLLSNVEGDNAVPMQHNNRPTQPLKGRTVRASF
Method: as §1, §2
(§4) The fluorescence-based thermal shift assay (FTSA) was used to determine the binding affinity of compounds for all catalytically active CA isozymes. […] The CA isozyme melting temperature Tm was determined by following the fluorescence of 8-anilino-1-naphthalenesulfonate (ANS) or Glomelt dye. […]

[5] = target: T5, human recombinant CAXIII (Homo sapiens, UniProt Q8N1Q1); assay: Fluorescence-based thermal shift assay (FTSA), CAXIII; assay type: binding; conditions: 37 °C, pH 7.0
T5 construct: made in house; host or cells: bacterial expression system
T5 sequence (Q8N1Q1 whole entry): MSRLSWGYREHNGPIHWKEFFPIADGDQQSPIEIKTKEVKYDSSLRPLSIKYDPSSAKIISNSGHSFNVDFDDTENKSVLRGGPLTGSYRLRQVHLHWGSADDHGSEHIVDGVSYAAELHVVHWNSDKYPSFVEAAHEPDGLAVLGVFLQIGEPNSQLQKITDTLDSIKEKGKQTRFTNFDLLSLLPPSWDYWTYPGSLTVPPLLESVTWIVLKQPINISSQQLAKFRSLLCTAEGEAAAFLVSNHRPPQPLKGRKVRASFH
Method: as §1, §2
as §3, with “To obtain the dissociation constant (at 37 °C), data analysis was performed, and the curves were fit using the Thermott Web server.[57]” left out

[6] = test system: HeLaCAIX^WT versus HeLaCAIX^KO tumors; assay: NIR imaging of HeLa xenograft tumors in nude mice; assay type: in vivo; conditions: for compound uptake in HeLaCAIX^WT tumors compared to HeLaCAIX^KO tumors: I.V. 2 mg/kg once, imaged every 24 h
Method: The HeLaCAIX^WT and HeLaCAIX^KO cells were injected subcutaneously (S.Q.) into opposite flanks of nude mice, 3 × 10^6 cells per injection. Once tumors reached the palpable size, we performed imaging using the UVITEC AllianceQ9 Imager system. The images were obtained every 24 h after intravenous (I.V.) compound injection into a tail vein. To analyze fluorescent compound uptake, two best candidate compounds were chosen, AZ21-6 and GZ22-4. Compound GZ22-4 was selected because of the photostability and good quantum yield (Table S1), and the fluorescence maximum of AZ21-6 closely resembled the center of the NIR filter of the imaging system. Both compounds had the best solubility properties and good in vitro binding to cells.
Female nude mice (CR ATH HO Code 24106216), 5–6 weeks old, were obtained from Charles River Laboratories. Animals were housed, bred, and handled in the Department of Animal Models Animal Facility at the Life Sciences Center, Vilnius University, Lithuania, with a 12 h light–dark cycle, at 21–23 °C and 40–60% humidity. Animals were fed with an irradiated cholorophyll-deficient diet (Altromin, #C1086194) and water ad libitum. All experimental procedures conformed to Directive 2010/63/EU requirements and were approved by the Lithuanian State Food and Veterinary Service (Approval no G2-194, 2021-11-09).
Before injection into animals, mycoplasma-free cells in the exponential growth phase were harvested, washed, and resuspended in PBS. 8–12 weeks old female nude mice were inoculated S.Q. with 3 × 10^6 HeLaCAIX^WT cells in 100 μL of PBS into the right flank of the mice, and the same number of HeLaCAIX^KO cells were injected into the left flank of the same mouse. Once tumors reached a suitable size for imaging, GZ22-4 or AZ21-6 compounds were injected I.V. at a dose of 2 mg/kg/dose once. Mice were imaged every 24 h postinjection using isoflurane anesthesia with an Alliance^TM bQ9 Imager system. Images were quantified using the UVIBAND MAX analysis software system. […]

[7] = target: T6, human recombinant CAXIV (Homo sapiens, UniProt Q9ULX7); assay: Fluorescence-based thermal shift assay (FTSA), CAXIV; assay type: binding; conditions: 37 °C, pH 7.0
T6 construct: Most isozymes were truncated, and only the catalytic domains of the proteins were produced; made in house; host or cells: bacterial expression system
T6 sequence (Q9ULX7 20-278 limits assumed): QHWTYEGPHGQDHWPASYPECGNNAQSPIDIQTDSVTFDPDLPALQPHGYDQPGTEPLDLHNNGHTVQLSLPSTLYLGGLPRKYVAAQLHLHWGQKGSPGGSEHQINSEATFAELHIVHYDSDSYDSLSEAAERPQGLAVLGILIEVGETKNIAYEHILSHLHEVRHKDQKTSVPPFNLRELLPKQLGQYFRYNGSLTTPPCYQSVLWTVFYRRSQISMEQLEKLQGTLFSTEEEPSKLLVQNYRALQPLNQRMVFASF
Method: as §1, §2, §3

[8] = target: T7, human recombinant CAII (Homo sapiens, UniProt P00918); assay: Fluorescence-based thermal shift assay (FTSA), CAII; assay type: binding; conditions: 37 °C, pH 7.0
T7 construct: made in house; host or cells: bacterial expression system
Method: as §1, §2, §3

[9] = target: T8, human recombinant CAVB (Homo sapiens, UniProt Q9Y2D0); assay: Fluorescence-based thermal shift assay (FTSA), CAVB; assay type: binding; conditions: 37 °C, pH 7.0
T8 construct: Most isozymes were truncated, and only the catalytic domains of the proteins were produced; made in house; host or cells: bacterial expression system
T8 sequence (Q9Y2D0 37-296 limits assumed): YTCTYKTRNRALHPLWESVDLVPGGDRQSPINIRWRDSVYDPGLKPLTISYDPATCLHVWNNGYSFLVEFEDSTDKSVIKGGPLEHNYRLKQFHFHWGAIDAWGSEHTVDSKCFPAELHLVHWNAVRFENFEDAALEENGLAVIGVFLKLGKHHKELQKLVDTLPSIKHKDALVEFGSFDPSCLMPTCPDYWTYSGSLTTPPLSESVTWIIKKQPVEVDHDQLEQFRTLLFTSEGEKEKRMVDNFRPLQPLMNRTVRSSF
Method: as §1, §2, §4

[10] = Absorption, emission and fluorescence quantum yield measurement; assay type: physicochemical; conditions: for λabs: absorption spectrum; for λem (fluorescence maximum): emission spectrum
Method: Figure S1. Absorption and emission spectra of NIR inhibitors. GZ22-1 λ abs= 783 nm, λ em= 807
Norm. absorption (arb. units)
Norm. photoluminescence (arb. units)
Norm absorption (arb. units) […]
Table S1. Fluorescence quantum yield comparison of NIR-fluorescent compounds. Compound
concentration was 100 nM in PBS. L a-c – excitation radiation integrals, P b-c – fluorescence
Nr. Compound Excitation La Lb Lc A(1) Pb Pc QY(2)
(1)Sample absorbance . (2)Fluorescence quantum yield: .LPc―(1―A)Pb […]

[11] = target: T9, human recombinant CAXII (Homo sapiens, UniProt O43570); assay: Fluorescence-based thermal shift assay (FTSA), CAXII; assay type: binding; conditions: 37 °C, pH 7.0
T9 construct: Most isozymes were truncated, and only the catalytic domains of the proteins were produced; made in house; host or cells: bacterial expression system
T9 sequence (O43570 30-289 limits assumed): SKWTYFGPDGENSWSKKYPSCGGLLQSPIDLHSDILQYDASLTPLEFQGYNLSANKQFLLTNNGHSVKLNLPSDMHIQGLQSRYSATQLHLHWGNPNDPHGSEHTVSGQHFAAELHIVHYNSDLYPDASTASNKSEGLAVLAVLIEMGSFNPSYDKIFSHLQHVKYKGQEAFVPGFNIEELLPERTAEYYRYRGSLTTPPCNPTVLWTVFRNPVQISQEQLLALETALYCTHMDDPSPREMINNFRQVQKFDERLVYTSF
Method: as §1, §2, §3

[12] = target: T10, human recombinant CAIII (Homo sapiens, UniProt P07451); assay: Fluorescence-based thermal shift assay (FTSA), CAIII; assay type: binding; conditions: 37 °C, pH 7.0
T10 construct: made in house; host or cells: bacterial expression system
T10 sequence (P07451 whole entry): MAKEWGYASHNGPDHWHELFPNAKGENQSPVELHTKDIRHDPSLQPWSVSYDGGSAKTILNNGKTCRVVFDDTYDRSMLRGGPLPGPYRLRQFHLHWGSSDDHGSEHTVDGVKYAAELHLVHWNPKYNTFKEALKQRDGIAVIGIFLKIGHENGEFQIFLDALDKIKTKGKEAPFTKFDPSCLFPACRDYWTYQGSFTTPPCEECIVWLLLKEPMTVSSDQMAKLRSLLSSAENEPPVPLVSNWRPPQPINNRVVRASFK
Method: as §1, §2, §3

Row | Kd [1] [nM] | Kd [2] [nM] | Kd [3] [nM] | Kd [4] [nM] | Kd [5] [nM] | Kd [7] [nM] | Kd [8] [nM] | Kd [9] [nM] | QY (fluorescence quantum yield) ([10]; 100 nM in PBS, excitation 650nm) | λabs [10] [nm] | Kd [11] [nM] | Kd [12] [nM] | λem (fluorescence maximum) [10] [nm] | clearance from nontumor locations ([6]; I.V. 2 mg/kg, daily images) | Structure (SMILES) | compound uptake in HeLaCAIX^WT tumors compared to HeLaCAIX^KO tumors [6]
1 | 10000 | 60 | 8000 | 20000 | 10 | 100 | 2000 | 50 | 0.43 | 637 | 50 | 30000 | – | – | CC1(C)C(/C=C/C2=C(NCCCOCCOCCOCCCNC(=O)CCC(=O)NCCS(=O)(=O)c3c(F)c(F)c(S(N)(=O)=O)c(F)c3NC3CCCCCCC3)C(=C/C=C3\N(CCCCS(=O)(=O)[O-])c4ccccc4C3(C)C)/CCC2)=[N+](CCCCS(=O)(=O)[O-])c2ccccc21.[Na+] [AZ21-6, Sodium 4-((Z)-2-((E)-2-(2-((1-((2-(Cyclooctylamino)-3,5,6-trifluoro-4-sulfamoylphenyl)sulfonyl)-4,7-dioxo-12,15,18-trioxa-3,8-diazahenicosan-21-yl)amino)-3-((E)-2-(3,3-dimethyl-1-(4-sulfonatobutyl)-3H-indol-1-ium-2-yl)vinyl)cyclohex-2-en-1-ylidene)ethylidene)-3,3-dimethylindolin-1-yl)butane-1-sulfonate] | preferential uptake
2 | 2000 | – | 2000 | 10000 | – | 100 | 400 | – | – | 783 | 60 | 20000 | 805 | – | CC1(C)C(/C=C/C2=C(Oc3cccc(CC(=O)NCCCOCCOCCOCCCNC(=O)CCS(=O)(=O)c4c(F)c(F)c(S(N)(=O)=O)c(F)c4NC4CCCCCCC4)c3)C(=C/C=C3\N(CCCCS(=O)(=O)[O-])c4ccccc4C3(C)C)/CCC2)=[N+](CCCCS(=O)(=O)[O-])c2ccccc21.[Na+] [GZ21-19, Sodium 4-((Z)-2-((E)-2-(2-(3-(20-((2-(Cyclooctylamino)-3,5,6-trifluoro-4-sulfamoylphenyl)sulfonyl)-2,18-dioxo-7,10,13-trioxa-3,17-diazaicosyl)phenoxy)-3-((E)-2-(3,3-dimethyl-1-(4-sulfonatobutyl)-3H-indol-1-ium-2-yl)vinyl)cyclohex-2-en-1-ylidene)ethylidene)-3,3-dimethylindolin-1-yl)butane-1-sulfonate] | –
3 | 1000 | 30 | 7000 | – | 8 | 100 | 20 | – | – | 783 | 200 | 30000 | 807 | – | CC1(C)C(/C=C/C2=C(Oc3ccc(CCC(=O)NCCCOCCOCCOCCCNC(=O)CCS(=O)(=O)c4c(F)c(F)c(S(N)(=O)=O)c(F)c4NC4CCCCCCC4)cc3)C(=C/C=C3\N(CCCCS(=O)(=O)[O-])c4ccccc4C3(C)C)/CCC2)=[N+](CCCCS(=O)(=O)[O-])c2ccccc21.[Na+] [GZ22-1, Sodium 4-((Z)-2-((E)-2-(2-(4-(21-((2-(Cyclooctylamino)-3,5,6-trifluoro-4-sulfamoylphenyl)sulfonyl)-3,19-dioxo-8,11,14-trioxa-4,18-diazahenicosyl)phenoxy)-3-((E)-2-(3,3-dimethyl-1-(4-sulfonatobutyl)-3H-indol-1-ium-2-yl)vinyl)cyclohex-2-en-1-ylidene)ethylidene)-3,3-dimethylindolin-1-yl)butane-1-sulfonate] | –
4 | 2000 | 40 | 8000 | – | 5 | 90 | 200 | – | – | 783 | 80 | 5000 | 807 | faster clearance from nontumor locations | CC1(C)C(/C=C/C2=C(Oc3ccc(CCC(=O)NCCOCCOCCOCCOCCOCCOCCOCCOCCOCCOCCOCCNC(=O)CCS(=O)(=O)c4c(F)c(F)c(S(N)(=O)=O)c(F)c4NC4CCCCCCC4)cc3)C(=C/C=C3\N(CCCCS(=O)(=O)[O-])c4ccccc4C3(C)C)/CCC2)=[N+](CCCCS(=O)(=O)[O-])c2ccccc21.[Na+] [GZ22-4, Sodium 4-((Z)-2-((E)-2-(2-(4-(43-((2-(Cyclooctylamino)-3,5,6-trifluoro-4-sulfamoylphenyl)sulfonyl)-3,41-dioxo-7,10,13,16,19,22,25,28,31,34,37-undecaoxa-4,40-diazatritetracontyl)phenoxy)-3-((E)-2-(3,3-dimethyl-1-(4-sulfonatobutyl)-3H-indol-1-ium-2-yl)vinyl)cyclohex-2-en-1-ylidene)ethylidene)-3,3-dimethylindolin-1-yl)butane-1-sulfonate] | preferential uptake
